Experimental data as given in the NIST ThermoML archive (doi:10.1016/j.jct.2004.12.014).
Numbers after ± are expanded uncertainties.

Key:
[1] = xn = mol fraction of the nth substance listed; settings: 318.15 K, 101 kPa, Liquid
[2] = excess molar enthalpy (molar enthalpy of mixing); xn = mol fraction of the nth substance listed; settings: 318.15 K, 101 kPa, Liquid

CCCCCCCCCCCCCCC [pentadecane] + CCC(=O)OC
excess molar volume ([1]; x2 = 0.0815): 3.78e-07 ± 1.7e-08 m3/mol
excess molar volume ([1]; x2 = 0.1606): 7e-07 ± 1.9e-08 m3/mol
excess molar volume ([1]; x2 = 0.2792): 1.134e-06 ± 2.1e-08 m3/mol
excess molar volume ([1]; x2 = 0.377): 1.401e-06 ± 2.2e-08 m3/mol
excess molar volume ([1]; x2 = 0.4695): 1.535e-06 ± 2.3e-08 m3/mol
excess molar volume ([1]; x2 = 0.5395): 1.586e-06 ± 2.3e-08 m3/mol
excess molar volume ([1]; x2 = 0.6103): 1.569e-06 ± 2.3e-08 m3/mol
excess molar volume ([1]; x2 = 0.6695): 1.514e-06 ± 2.3e-08 m3/mol
excess molar volume ([1]; x2 = 0.7187): 1.405e-06 ± 2.2e-08 m3/mol
excess molar volume ([1]; x2 = 0.7639): 1.277e-06 ± 2.1e-08 m3/mol
excess molar volume ([1]; x2 = 0.8034): 1.137e-06 ± 2.1e-08 m3/mol
excess molar volume ([1]; x2 = 0.8389): 1.001e-06 ± 2e-08 m3/mol
excess molar volume ([1]; x2 = 0.8718): 8.65e-07 ± 2e-08 m3/mol
excess molar volume ([1]; x2 = 0.9023): 7.29e-07 ± 1.9e-08 m3/mol
excess molar volume ([1]; x2 = 0.9297): 5.72e-07 ± 1.8e-08 m3/mol
excess molar volume ([1]; x2 = 0.9549): 4.07e-07 ± 1.7e-08 m3/mol
excess molar volume ([1]; x2 = 0.9781): 2.28e-07 ± 1.7e-08 m3/mol
excess molar enthalpy ([2]; x2 = 0.125): 0.172 ± 0.00311 kcal/mol
excess molar enthalpy ([2]; x2 = 0.233): 0.296 ± 0.00502 kcal/mol
excess molar enthalpy ([2]; x2 = 0.3463): 0.398 ± 0.00645 kcal/mol
excess molar enthalpy ([2]; x2 = 0.435): 0.457 ± 0.00741 kcal/mol
excess molar enthalpy ([2]; x2 = 0.5058): 0.486 ± 0.00789 kcal/mol
excess molar enthalpy ([2]; x2 = 0.5584): 0.495 ± 0.00813 kcal/mol
excess molar enthalpy ([2]; x2 = 0.6021): 0.495 ± 0.00813 kcal/mol
excess molar enthalpy ([2]; x2 = 0.6368): 0.487 ± 0.00789 kcal/mol
excess molar enthalpy ([2]; x2 = 0.6819): 0.466 ± 0.00765 kcal/mol
excess molar enthalpy ([2]; x2 = 0.7197): 0.439 ± 0.00717 kcal/mol
excess molar enthalpy ([2]; x2 = 0.7527): 0.408 ± 0.00669 kcal/mol
excess molar enthalpy ([2]; x2 = 0.7913): 0.367 ± 0.00598 kcal/mol
excess molar enthalpy ([2]; x2 = 0.8294): 0.318 ± 0.00526 kcal/mol
excess molar enthalpy ([2]; x2 = 0.8668): 0.272 ± 0.00454 kcal/mol
excess molar enthalpy ([2]; x2 = 0.9037): 0.217 ± 0.00382 kcal/mol
excess molar enthalpy ([2]; x2 = 0.94): 0.151 ± 0.00287 kcal/mol
excess molar enthalpy ([2]; x2 = 0.9713): 0.0789 ± 0.00184 kcal/mol

CCCCCCCCCCCCCCC [pentadecane] + CCCCOC(=O)CC
excess molar volume ([1]; x2 = 0.0505): 1.65e-07 ± 1.6e-08 m3/mol
excess molar volume ([1]; x2 = 0.0965): 3.01e-07 ± 1.7e-08 m3/mol
excess molar volume ([1]; x2 = 0.197): 5.5e-07 ± 1.8e-08 m3/mol
excess molar volume ([1]; x2 = 0.2885): 7.14e-07 ± 1.9e-08 m3/mol
excess molar volume ([1]; x2 = 0.372): 8.22e-07 ± 1.9e-08 m3/mol
excess molar volume ([1]; x2 = 0.4383): 8.58e-07 ± 1.9e-08 m3/mol
excess molar volume ([1]; x2 = 0.5036): 8.89e-07 ± 2e-08 m3/mol
excess molar volume ([1]; x2 = 0.5649): 8.8e-07 ± 2e-08 m3/mol
excess molar volume ([1]; x2 = 0.6245): 8.56e-07 ± 1.9e-08 m3/mol
excess molar volume ([1]; x2 = 0.6765): 8.1e-07 ± 1.9e-08 m3/mol
excess molar volume ([1]; x2 = 0.7278): 7.63e-07 ± 1.9e-08 m3/mol
excess molar volume ([1]; x2 = 0.7734): 6.88e-07 ± 1.9e-08 m3/mol
excess molar volume ([1]; x2 = 0.817): 5.89e-07 ± 1.8e-08 m3/mol
excess molar volume ([1]; x2 = 0.8567): 4.91e-07 ± 1.8e-08 m3/mol
excess molar volume ([1]; x2 = 0.897): 3.82e-07 ± 1.7e-08 m3/mol
excess molar volume ([1]; x2 = 0.9328): 2.79e-07 ± 1.7e-08 m3/mol
excess molar volume ([1]; x2 = 0.9665): 1.56e-07 ± 1.6e-08 m3/mol
excess molar enthalpy ([2]; x2 = 0.0761): 0.0789 ± 0.00163 kcal/mol
excess molar enthalpy ([2]; x2 = 0.1691): 0.151 ± 0.00263 kcal/mol
excess molar enthalpy ([2]; x2 = 0.2538): 0.211 ± 0.00359 kcal/mol
excess molar enthalpy ([2]; x2 = 0.3371): 0.253 ± 0.0043 kcal/mol
excess molar enthalpy ([2]; x2 = 0.4082): 0.279 ± 0.00478 kcal/mol
excess molar enthalpy ([2]; x2 = 0.4663): 0.291 ± 0.00478 kcal/mol
excess molar enthalpy ([2]; x2 = 0.5154): 0.294 ± 0.00502 kcal/mol
excess molar enthalpy ([2]; x2 = 0.5563): 0.292 ± 0.00502 kcal/mol
excess molar enthalpy ([2]; x2 = 0.5938): 0.288 ± 0.00478 kcal/mol
excess molar enthalpy ([2]; x2 = 0.6011): 0.287 ± 0.00478 kcal/mol
excess molar enthalpy ([2]; x2 = 0.6427): 0.276 ± 0.00454 kcal/mol
excess molar enthalpy ([2]; x2 = 0.6861): 0.262 ± 0.0043 kcal/mol
excess molar enthalpy ([2]; x2 = 0.7321): 0.242 ± 0.00406 kcal/mol
excess molar enthalpy ([2]; x2 = 0.7784): 0.215 ± 0.00359 kcal/mol
excess molar enthalpy ([2]; x2 = 0.8262): 0.18 ± 0.00311 kcal/mol
excess molar enthalpy ([2]; x2 = 0.8732): 0.142 ± 0.00263 kcal/mol
excess molar enthalpy ([2]; x2 = 0.9184): 0.0978 ± 0.00194 kcal/mol
excess molar enthalpy ([2]; x2 = 0.9612): 0.0508 ± 0.00124 kcal/mol

CCCCCCCCCCCCCCC [pentadecane] + CCCOC(=O)CC
excess molar volume ([1]; x2 = 0.0571): 1.92e-07 ± 1.6e-08 m3/mol
excess molar volume ([1]; x2 = 0.121): 3.65e-07 ± 1.7e-08 m3/mol
excess molar volume ([1]; x2 = 0.2189): 6.37e-07 ± 1.8e-08 m3/mol
excess molar volume ([1]; x2 = 0.3124): 8.36e-07 ± 1.9e-08 m3/mol
excess molar volume ([1]; x2 = 0.3919): 9.5e-07 ± 2e-08 m3/mol
excess molar volume ([1]; x2 = 0.4644): 1.011e-06 ± 2e-08 m3/mol
excess molar volume ([1]; x2 = 0.5327): 1.042e-06 ± 2e-08 m3/mol
excess molar volume ([1]; x2 = 0.5945): 1.032e-06 ± 2e-08 m3/mol
excess molar volume ([1]; x2 = 0.6507): 9.93e-07 ± 2e-08 m3/mol
excess molar volume ([1]; x2 = 0.7004): 9.51e-07 ± 2e-08 m3/mol
excess molar volume ([1]; x2 = 0.7486): 8.75e-07 ± 2e-08 m3/mol
excess molar volume ([1]; x2 = 0.7919): 7.84e-07 ± 1.9e-08 m3/mol
excess molar volume ([1]; x2 = 0.8316): 6.85e-07 ± 1.9e-08 m3/mol
excess molar volume ([1]; x2 = 0.8692): 5.77e-07 ± 1.8e-08 m3/mol
excess molar volume ([1]; x2 = 0.9037): 4.49e-07 ± 1.8e-08 m3/mol
excess molar volume ([1]; x2 = 0.9384): 3.2e-07 ± 1.7e-08 m3/mol
excess molar volume ([1]; x2 = 0.9689): 1.72e-07 ± 1.6e-08 m3/mol
excess molar enthalpy ([2]; x2 = 0.0908): 0.0969 ± 0.00191 kcal/mol
excess molar enthalpy ([2]; x2 = 0.2077): 0.193 ± 0.00335 kcal/mol
excess molar enthalpy ([2]; x2 = 0.3159): 0.265 ± 0.00454 kcal/mol
excess molar enthalpy ([2]; x2 = 0.4097): 0.309 ± 0.00526 kcal/mol
excess molar enthalpy ([2]; x2 = 0.481): 0.33 ± 0.0055 kcal/mol
excess molar enthalpy ([2]; x2 = 0.538): 0.336 ± 0.0055 kcal/mol
excess molar enthalpy ([2]; x2 = 0.5826): 0.333 ± 0.0055 kcal/mol
excess molar enthalpy ([2]; x2 = 0.6208): 0.327 ± 0.0055 kcal/mol
excess molar enthalpy ([2]; x2 = 0.6333): 0.322 ± 0.00526 kcal/mol
excess molar enthalpy ([2]; x2 = 0.6724): 0.307 ± 0.00502 kcal/mol
excess molar enthalpy ([2]; x2 = 0.7191): 0.284 ± 0.00478 kcal/mol
excess molar enthalpy ([2]; x2 = 0.7668): 0.255 ± 0.0043 kcal/mol
excess molar enthalpy ([2]; x2 = 0.8087): 0.224 ± 0.00382 kcal/mol
excess molar enthalpy ([2]; x2 = 0.8594): 0.181 ± 0.00311 kcal/mol
excess molar enthalpy ([2]; x2 = 0.9086): 0.128 ± 0.00239 kcal/mol
excess molar enthalpy ([2]; x2 = 0.96): 0.0654 ± 0.00146 kcal/mol

CCCCCCCCCCCCCCC [pentadecane] + CCOC(=O)CC
excess molar volume ([1]; x2 = 0.0586): 2.35e-07 ± 1.7e-08 m3/mol
excess molar volume ([1]; x2 = 0.1287): 4.67e-07 ± 1.8e-08 m3/mol
excess molar volume ([1]; x2 = 0.2483): 8.47e-07 ± 1.9e-08 m3/mol
excess molar volume ([1]; x2 = 0.3372): 1.053e-06 ± 2e-08 m3/mol
excess molar volume ([1]; x2 = 0.4269): 1.184e-06 ± 2.1e-08 m3/mol
excess molar volume ([1]; x2 = 0.502): 1.246e-06 ± 2.1e-08 m3/mol
excess molar volume ([1]; x2 = 0.5673): 1.252e-06 ± 2.1e-08 m3/mol
excess molar volume ([1]; x2 = 0.6288): 1.223e-06 ± 2.1e-08 m3/mol
excess molar volume ([1]; x2 = 0.6845): 1.156e-06 ± 2.1e-08 m3/mol
excess molar volume ([1]; x2 = 0.7304): 1.087e-06 ± 2.1e-08 m3/mol
excess molar volume ([1]; x2 = 0.7744): 9.92e-07 ± 2e-08 m3/mol
excess molar volume ([1]; x2 = 0.8148): 8.88e-07 ± 2e-08 m3/mol
excess molar volume ([1]; x2 = 0.8537): 7.69e-07 ± 1.9e-08 m3/mol
excess molar volume ([1]; x2 = 0.8864): 6.38e-07 ± 1.8e-08 m3/mol
excess molar volume ([1]; x2 = 0.919): 5.21e-07 ± 1.8e-08 m3/mol
excess molar volume ([1]; x2 = 0.9481): 3.55e-07 ± 1.7e-08 m3/mol
excess molar volume ([1]; x2 = 0.9742): 1.89e-07 ± 1.6e-08 m3/mol
excess molar enthalpy ([2]; x2 = 0.1045): 0.128 ± 0.00237 kcal/mol
excess molar enthalpy ([2]; x2 = 0.2122): 0.227 ± 0.00382 kcal/mol
excess molar enthalpy ([2]; x2 = 0.3158): 0.312 ± 0.00526 kcal/mol
excess molar enthalpy ([2]; x2 = 0.4055): 0.364 ± 0.00598 kcal/mol
excess molar enthalpy ([2]; x2 = 0.4848): 0.392 ± 0.00645 kcal/mol
excess molar enthalpy ([2]; x2 = 0.5368): 0.399 ± 0.00645 kcal/mol
excess molar enthalpy ([2]; x2 = 0.5811): 0.398 ± 0.00645 kcal/mol
excess molar enthalpy ([2]; x2 = 0.6068): 0.393 ± 0.00645 kcal/mol
excess molar enthalpy ([2]; x2 = 0.6156): 0.391 ± 0.00645 kcal/mol
excess molar enthalpy ([2]; x2 = 0.6409): 0.382 ± 0.00621 kcal/mol
excess molar enthalpy ([2]; x2 = 0.6796): 0.366 ± 0.00598 kcal/mol
excess molar enthalpy ([2]; x2 = 0.7199): 0.341 ± 0.00574 kcal/mol
excess molar enthalpy ([2]; x2 = 0.761): 0.313 ± 0.00526 kcal/mol
excess molar enthalpy ([2]; x2 = 0.8036): 0.273 ± 0.00454 kcal/mol
excess molar enthalpy ([2]; x2 = 0.846): 0.229 ± 0.00406 kcal/mol
excess molar enthalpy ([2]; x2 = 0.8889): 0.181 ± 0.00311 kcal/mol
excess molar enthalpy ([2]; x2 = 0.9311): 0.124 ± 0.00237 kcal/mol
excess molar enthalpy ([2]; x2 = 0.9692): 0.0613 ± 0.00148 kcal/mol
